# Target: T1, human ACC2 (Homo sapiens, UniProt O00763)
# T1 construct: made in house; host or cells: insect cells (baculoviral expression system)
# Test: ACC2 assay, spectrophotometric 384 well assay (NADH-linked, coupled lactate dehydrogenase/pyruvate kinase)
# Assay type: biochemical
# Conditions: ACC2 assay, hACC2 construct lacking 128 N-terminal amino acids, 25° C., 340 nm; read-out: IC50
# Outline: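 ADP output tracked via pyruvate kinase/lactate dehydrogenase NADH oxidation, slope at 340 nm over 15 min, 25° C, with 500 μM ATP and 200 μM each acetyl-CoA and NADH. Enzyme: insect-cell-expressed human ACC2, N-terminal 128 residues deleted; pH 7.5 Tris with citrate, KHCO3. IC50 from four-parameter regression versus vehicle and no-acetyl-CoA controls.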
# T1 sequence (O00763 129-2458 limits assumed): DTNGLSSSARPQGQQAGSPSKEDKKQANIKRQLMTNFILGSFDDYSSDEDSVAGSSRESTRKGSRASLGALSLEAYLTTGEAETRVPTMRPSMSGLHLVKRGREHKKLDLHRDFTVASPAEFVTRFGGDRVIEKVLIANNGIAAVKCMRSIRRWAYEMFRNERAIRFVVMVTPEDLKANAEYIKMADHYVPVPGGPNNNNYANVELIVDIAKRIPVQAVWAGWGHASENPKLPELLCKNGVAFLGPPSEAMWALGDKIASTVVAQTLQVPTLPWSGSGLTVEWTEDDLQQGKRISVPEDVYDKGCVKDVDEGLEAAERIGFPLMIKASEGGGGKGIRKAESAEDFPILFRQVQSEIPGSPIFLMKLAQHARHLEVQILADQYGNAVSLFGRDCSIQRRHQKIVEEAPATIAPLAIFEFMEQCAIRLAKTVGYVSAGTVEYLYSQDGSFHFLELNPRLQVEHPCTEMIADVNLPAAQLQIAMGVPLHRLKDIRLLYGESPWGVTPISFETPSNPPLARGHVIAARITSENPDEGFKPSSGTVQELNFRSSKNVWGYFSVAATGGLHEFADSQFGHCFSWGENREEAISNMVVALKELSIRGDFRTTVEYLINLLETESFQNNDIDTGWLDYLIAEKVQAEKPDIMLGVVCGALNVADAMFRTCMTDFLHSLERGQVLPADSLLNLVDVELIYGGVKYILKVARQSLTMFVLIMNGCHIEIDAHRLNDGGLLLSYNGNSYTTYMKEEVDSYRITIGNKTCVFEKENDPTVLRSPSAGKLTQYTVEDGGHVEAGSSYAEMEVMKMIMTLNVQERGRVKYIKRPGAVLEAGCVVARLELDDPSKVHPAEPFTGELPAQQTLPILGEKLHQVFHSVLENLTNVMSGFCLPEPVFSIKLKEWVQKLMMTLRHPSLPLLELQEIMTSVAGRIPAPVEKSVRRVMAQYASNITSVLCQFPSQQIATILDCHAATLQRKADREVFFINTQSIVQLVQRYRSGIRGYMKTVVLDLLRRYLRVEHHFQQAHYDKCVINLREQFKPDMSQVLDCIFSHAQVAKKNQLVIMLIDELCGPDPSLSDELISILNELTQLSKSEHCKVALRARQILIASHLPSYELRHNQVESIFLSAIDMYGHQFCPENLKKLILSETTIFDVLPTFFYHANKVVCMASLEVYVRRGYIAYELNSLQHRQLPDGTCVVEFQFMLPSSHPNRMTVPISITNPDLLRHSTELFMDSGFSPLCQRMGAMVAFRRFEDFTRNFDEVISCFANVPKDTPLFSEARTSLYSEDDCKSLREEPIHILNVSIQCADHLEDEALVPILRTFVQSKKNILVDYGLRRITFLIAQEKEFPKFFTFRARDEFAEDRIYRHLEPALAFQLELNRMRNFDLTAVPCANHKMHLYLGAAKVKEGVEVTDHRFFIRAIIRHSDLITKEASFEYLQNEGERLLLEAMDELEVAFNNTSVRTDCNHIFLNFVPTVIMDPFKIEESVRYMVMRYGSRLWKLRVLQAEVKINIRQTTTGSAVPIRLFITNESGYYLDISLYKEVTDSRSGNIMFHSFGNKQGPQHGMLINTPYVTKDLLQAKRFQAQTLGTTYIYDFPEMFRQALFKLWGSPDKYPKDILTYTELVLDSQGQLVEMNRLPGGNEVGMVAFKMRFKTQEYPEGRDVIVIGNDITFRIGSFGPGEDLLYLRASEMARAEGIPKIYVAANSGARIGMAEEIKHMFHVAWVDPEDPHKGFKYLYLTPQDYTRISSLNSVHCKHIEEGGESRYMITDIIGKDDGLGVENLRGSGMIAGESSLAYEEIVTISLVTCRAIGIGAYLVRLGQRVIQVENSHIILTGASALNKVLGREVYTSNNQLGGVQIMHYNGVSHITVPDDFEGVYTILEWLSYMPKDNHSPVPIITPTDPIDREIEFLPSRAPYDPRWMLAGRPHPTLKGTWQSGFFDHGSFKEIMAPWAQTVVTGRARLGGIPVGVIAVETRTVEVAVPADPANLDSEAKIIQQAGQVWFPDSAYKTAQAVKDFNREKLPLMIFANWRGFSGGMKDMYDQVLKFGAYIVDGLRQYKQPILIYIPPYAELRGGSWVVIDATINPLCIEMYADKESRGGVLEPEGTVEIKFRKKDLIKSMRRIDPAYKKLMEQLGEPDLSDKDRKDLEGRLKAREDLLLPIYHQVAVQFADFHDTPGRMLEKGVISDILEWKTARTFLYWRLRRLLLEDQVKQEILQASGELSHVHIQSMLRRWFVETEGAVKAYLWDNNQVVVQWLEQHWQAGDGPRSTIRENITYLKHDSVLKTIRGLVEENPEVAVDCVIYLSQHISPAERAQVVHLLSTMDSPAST
row,Structure (SMILES),IC50
1,COc1ccccc1-c1cnc(N2CCC(c3ccc([C@H](C)NC(C)=O)cc3)CC2)nc1 [Example 10.4],2000 nM
2,CCOc1ccc(-c2cnc(N3CCC(c4ccc([C@H](C)NC(C)=O)cc4)CC3)nc2)cc1 [Example 10.5],540 nM
3,CC(=O)N[C@@H](C)c1ccc(C2CCN(c3ncc(-c4ccc(C(C)C)cc4)cn3)CC2)cc1 [Example 10.11],5800 nM
4,CC(=O)N[C@@H](C)c1ccc(C2CCN(c3ncc(-c4cccnc4)cn3)CC2)cc1 [Example 10.12],360 nM
5,CC(=O)N[C@@H](C)c1ccc(C2CCN(c3ncc(-c4ccc(OC(F)(F)F)cc4)cn3)CC2)cc1 [Example 10.15],550 nM
6,CC(=O)N[C@@H](C)c1ccc(C2CCN(c3ncc(-c4ccncc4)cn3)CC2)cc1 [Example 10.16],710 nM
7,CC(=O)N[C@@H](C)c1ccc(C2CCN(c3ncc(-c4c(C)noc4C)cn3)CC2)cc1 [Example 10.20],2700 nM
8,COc1ncc(-c2cnc(N3CCC(c4ccc([C@H](C)NC(C)=O)cc4)CC3)nc2)cn1 [Example 10.22],1100 nM
9,CC(=O)N[C@@H](C)c1ccc(C2CCN(c3ncc(-c4ccc5c(c4)OCCO5)cn3)CC2)cc1 [Example 10.23],290 nM
10,CC(=O)N[C@@H](C)c1ccc(C2CCN(c3ncc(-c4ccc5c(ccn5C)c4)cn3)CC2)cc1 [Example 10.25],320 nM
11,CC(=O)N[C@@H](C)c1ccc(C2CCN(c3ncc(-c4ccc5c(c4)OCCCO5)cn3)CC2)cc1 [Example 10.26],410 nM
12,CC(=O)N[C@@H](C)c1ccc(C2CCN(c3ncc(-c4ccc(OC(C)C)cc4)cn3)CC2)cc1 [Example 10.27],970 nM
13,COCc1ccc(-c2cnc(N3CCC(c4ccc([C@H](C)NC(C)=O)cc4)CC3)nc2)cc1 [Example 10.32],410 nM
14,CC(=O)N[C@@H](C)c1ccc(C2CCN(c3ncc(-c4ccc(C)nc4)cn3)CC2)cc1 [Example 10.33],640 nM
15,COc1ccc(-c2cnc(N3CCC(c4ccc([C@H](C)NC(C)=O)cc4)CC3)nc2)cc1OC [Example 10.35],1100 nM
16,CCOc1ccc(-c2cnc(N3CCC(c4ccc([C@H](C)NC(C)=O)cc4)CC3)nc2)cn1 [Example 10.38],3000 nM
17,COc1ccc2cc(-c3cnc(N4CCC(c5ccc([C@H](C)NC(C)=O)cc5)CC4)nc3)ccc2c1 [Example 10.40],6900 nM
18,CC(=O)N[C@@H](C)c1ccc(C2CCN(c3ncc(-c4ccc(C5CC5)cc4)cn3)CC2)cc1 [Example 10.41],1900 nM
19,CC(=O)N[C@@H](C)c1ccc(C2CCN(c3ncc(-c4ccc(C(F)(F)F)cc4)cn3)CC2)cc1 [Example 10.45],1100 nM

row,Structure (SMILES),IC50
1,CC(=O)N[C@@H](C)c1ccc(C2CCN(c3ncc(-c4ccc(C)c(C)c4)cn3)CC2)cc1 [Example 10.47],270 nM
2,CC(=O)N[C@@H](C)c1ccc(C2CCN(c3ncc(-c4ccc(C)cc4C)cn3)CC2)cc1 [Example 10.48],1200 nM
3,CC(=O)N[C@@H](C)c1ccc(C2CCN(c3ncc(-c4ccc(F)c(C)c4)cn3)CC2)cc1 [Example 10.49],260 nM
4,CC(=O)N[C@@H](C)c1ccc(C2CCN(c3ncc(-c4ccc(OCC5CC5)nc4)cn3)CC2)cc1 [Example 10.51],1500 nM
5,CC(=O)N[C@@H](C)c1ccc(C2CCN(c3ncc(-c4cc(C)ccc4C)cn3)CC2)cc1 [Example 10.54],420 nM
6,CC(=O)N[C@@H](C)c1ccc(C2CCN(c3ncc(-c4ccccc4C#N)cn3)CC2)cc1 [Example 10.55],640 nM
7,CC(=O)N[C@@H](C)c1ccc(C2CCN(c3ncc(-c4cscc4C)cn3)CC2)cc1 [Example 10.56],320 nM
8,COc1ccc(-c2cnc(N3CCC(c4ccc([C@H](C)NC(C)=O)cc4)CC3)nc2)cc1Cl [Example 10.57],240 nM
9,COc1ncccc1-c1cnc(N2CCC(c3ccc([C@H](C)NC(C)=O)cc3)CC2)nc1 [Example 10.58],760 nM
10,CC(=O)N[C@@H](C)c1ccc(C2CCN(c3ncc(-c4ccc(F)cc4C)cn3)CC2)cc1 [Example 10.60],390 nM
11,CC(=O)N[C@@H](C)c1ccc(C2CCN(c3ncc(-c4ccc(C#N)cc4C)cn3)CC2)cc1 [Example 10.61],530 nM
12,CCSc1ccc(-c2cnc(N3CCC(c4ccc([C@H](C)NC(C)=O)cc4)CC3)nc2)cc1 [Example 10.64],7000 nM
13,COc1cc(-c2cnc(N3CCC(c4ccc([C@H](C)NC(C)=O)cc4)CC3)nc2)ccc1C [Example 10.65],330 nM
14,COc1cncc(-c2cnc(N3CCC(c4ccc([C@H](C)NC(C)=O)cc4)CC3)nc2)c1 [Example 10.68],320 nM
15,CC(=O)N[C@@H](C)c1ccc(C2CCN(c3ncc(-c4cncc(F)c4)cn3)CC2)cc1 [Example 10.69],270 nM
16,CC(=O)N[C@@H](C)c1ccc(C2CCN(c3ncc(-c4ccc5ncccc5c4)cn3)CC2)cc1 [Example 10.70],230 nM
17,CC(=O)N[C@@H](C)c1ccc(C2CCN(c3ncc(-c4cccn4C)cn3)CC2)cc1 [Example 10.72],1200 nM
18,CC(=O)N[C@@H](C)c1ccc(C2CCN(c3ncc(-c4cnc(Br)n4C)cn3)CC2)cc1 [Example 10.74],1200 nM

# Stronger by IC50, values ahead:
row,IC50,Structure (SMILES)
1,210 nM,COc1cc(OC)cc(-c2cnc(N3CCC(c4ccc([C@H](C)NC(C)=O)cc4)CC3)nc2)c1 [Example 10.34]
2,210 nM,COc1ccc(-c2cnc(N3CCC(c4ccc([C@H](C)NC(C)=O)cc4)CC3)nc2)c(C(F)(F)F)c1 [Example 10.36]
3,200 nM,COc1ccc(-c2cnc(N3CCC(c4ccc([C@H](C)NC(C)=O)cc4)CC3)nc2)cn1 [Example 10.2]
4,200 nM,CC(=O)N[C@@H](C)c1ccc(C2CCN(c3ncc(-c4ccccc4C)cn3)CC2)cc1 [Example 10.8]
5,190 nM,COc1ccc(-c2cnc(N3CCC(c4ccc([C@H](C)NC(C)=O)cc4)CC3)nc2)c(F)c1 [Example 10.37]
6,180 nM,CC(=O)N[C@@H](C)c1ccc(C2CCN(c3ncc(-c4ccc(CC#N)cc4)cn3)CC2)cc1 [Example 10.18]
7,180 nM,CSc1ccc(-c2cnc(N3CCC(c4ccc([C@H](C)NC(C)=O)cc4)CC3)nc2)cc1 [Example 10.31]
8,180 nM,CC(=O)N[C@@H](C)c1ccc(C2CCN(c3ncc(-c4ccc5nccnc5c4)cn3)CC2)cc1 [Example 10.73]
9,160 nM,CC(=O)N[C@@H](C)c1ccc(C2CCN(c3ncc(-c4ccc(C)cc4Cl)cn3)CC2)cc1 [Example 10.66]
10,150 nM,CC(=O)N[C@@H](C)c1ccc(C2CCN(c3ncc(C4=CCCCC4)cn3)CC2)cc1 [Example 10.71]
11,140 nM,CC(=O)N[C@@H](C)c1ccc(C2CCN(c3ncc(-c4ccc5[nH]ccc5c4)cn3)CC2)cc1 [Example 10.46]
12,130 nM,COc1cccc(-c2cnc(N3CCC(c4ccc([C@H](C)NC(C)=O)cc4)CC3)nc2)c1 [Example 10.3]
13,130 nM,COc1cc(-c2cnc(N3CCC(c4ccc([C@H](C)NC(C)=O)cc4)CC3)nc2)ccn1 [Example 10.29]
14,130 nM,COc1ccc(-c2cnc(N3CCC(c4ccc([C@H](C)NC(C)=O)cc4)CC3)nc2)cc1C [Example 10.30]
15,110 nM,CC(=O)N[C@@H](C)c1ccc(C2CCN(c3ncc(-c4ccc(Cl)c(C)c4)cn3)CC2)cc1 [Example 10.76]
16,100 nM,CCc1ccc(-c2cnc(N3CCC(c4ccc([C@H](C)NC(C)=O)cc4)CC3)nc2)cc1 [Example 10.6]
17,100 nM,CC(=O)N[C@@H](C)c1ccc(C2CCN(c3ncc(-c4cc5ccccc5o4)cn3)CC2)cc1 [Example 10.14]

row,IC50,Structure (SMILES)
1,100 nM,CC(=O)N[C@@H](C)c1ccc(C2CCN(c3ncc(-c4ccc(C)cc4)cn3)CC2)cc1 [Example 10.44]
2,90 nM,CC(=O)N[C@@H](C)c1ccc(C2CCN(c3ncc(-c4ccccc4F)cn3)CC2)cc1 [Example 10.13]
3,90 nM,CC(=O)N[C@@H](C)c1ccc(C2CCN(c3ncc(-c4ccc(C)c(Cl)c4)cn3)CC2)cc1 [Example 10.67]
4,80 nM,CC(=O)N[C@@H](C)c1ccc(C2CCN(c3ncc(-c4ccc(F)cc4F)cn3)CC2)cc1 [Example 10.53]
5,70 nM,CC(=O)N[C@@H](C)c1ccc(C2CCN(c3ncc(-c4ccc(C#N)cc4)cn3)CC2)cc1 [Example 10.10]
6,70 nM,CC(=O)N[C@@H](C)c1ccc(C2CCN(c3ncc(-c4cnc5ccccc5c4)cn3)CC2)cc1 [Example 10.21]
7,70 nM,CC(=O)N[C@@H](C)c1ccc(C2CCN(c3ncc(-c4ccc5c(c4)CCO5)cn3)CC2)cc1 [Example 10.24]
8,70 nM,CC(=O)N[C@@H](C)c1ccc(C2CCN(c3ncc(-c4ccc(F)c(F)c4)cn3)CC2)cc1 [Example 10.52]
9,50 nM,"CC(=O)N[C@@H](C)c1ccc(C2CCN(c3ncc(-c4ccc(C#N)c(F)c4)cn3)CC2)cc1 [Example 10.1, (S)—N-[1-(4-{1-[5-(4-Cyano-3-fluorophenyl)-pyrimidin-2-yl]-piperidin-4-yl}-phenyl)ethyl]-acetamide]"
10,50 nM,CC(=O)N[C@@H](C)c1ccc(C2CCN(c3ncc(-c4ccc(F)c(C#N)c4)cn3)CC2)cc1 [Example 10.50]
11,50 nM,CC(=O)N[C@@H](C)c1ccc(C2CCN(c3ncc(-c4ccsc4)cn3)CC2)cc1 [Example 10.62]
12,50 nM,CC(=O)N[C@@H](C)c1ccc(C2CCN(c3ncc(-c4ccc5sccc5c4)cn3)CC2)cc1 [Example 10.75]
13,40 nM,CC(=O)N[C@@H](C)c1ccc(C2CCN(c3ncc(-c4cccc(C)c4)cn3)CC2)cc1 [Example 10.7]
14,30 nM,CC(=O)N[C@@H](C)c1ccc(C2CCN(c3ncc(-c4ccccc4)cn3)CC2)cc1 [Example 10.43]
15,30 nM,CC(=O)N[C@@H](C)c1ccc(C2CCN(c3ncc(-c4ccc(C#N)s4)cn3)CC2)cc1 [Example 10.63]
16,20 nM,CC(=O)N[C@@H](C)c1ccc(C2CCN(c3ncc(-c4ccc(F)cc4)cn3)CC2)cc1 [Example 10.9]

# Reference: patent US9006450B2 (Boehringer Ingelheim International GmbH, priority 2010, dated 2015)
